From patent publication US20040259942A1, “Modulation of stat activity” (priority 2001, published 2004)

Tests used:
BR293 cells = assay: Cell proliferation assay (cell counting); type: cell-based, human; conditions: for growth of cultured cells (confluence): full medium, 48 h, 100 μM (FIG. 16a)
Experimental: Equal numbers of BR293 and MDA-MB-468 cells were seeded in MEM containing 10% FCS into 10 cm dishes. […]. For the 48 time points, fresh medium containing the appropriate inhibitor was applied to the cells after 24 hours. Controls were allowed to grow for 48 hours in the absence of inhibitor. Thereafter, all the cells were washed twice with ice cold PBS, harvested and counted under a phase-contrast microscope. Values are expressed as averages+S.D. (n=3).
(§1) Equal numbers of BR293, MCF-10F, MCF-7, MDA-MB-468, HKEK293 and COS1 cells were seeded in the appropriate growth medium into 10 cm dishes. Cells were allowed to grow in the presence of various concentrations of OdDHL or OHHL for 24 or 48 hours. For the 48-hour time points, fresh medium containing the appropriate inhibitor was applied to the cells after 24 hours. Controls were allowed to grow for 48 hours in the absence of inhibitor. Thereafter, all the cells were washed twice with ice cold PBS, harvested and counted under a phase-contrast microscope. Values are expressed as averages ±S.D. (n=3).

MCF-7 cells = assay: DAPI staining, confocal microscopy (apoptosis); type: cell-based, human; conditions: growing cells treated; 100 μM (FIG. 17)
Experimental: OdDHL induces apoptosis of BC cells (a) MCF-7 cells were cultured in full medium alone or in the presence of 1001M OdDHL or 100 μM OHHL. […] Left-hand panels show DAPI, right-hand panels show the corresponding phase contrast and middle panels the image overlays. (b) MDA-MB-468 cells were cultured in full medium alone or in the presence of 100 μM OdDHL or 100 μM OHHL. After 18 hours cells were fixed, stained and examined as in (a). (c) BR293, MCF-7 and MDA-MD-468 cells were cultured in full medium alone (lanes 1, 3, 5) or in the presence of 100 μM OdDHL (lanes 2, 4, 6) or 400 μM etoposide (lane 7). After 18 hours cells were lysed and analysed for PARP cleavage by Western blotting with an anti-PARP antibody. Full length PARP is labelled and the lower arrow indicates the major caspase cleavage fragment.

Akt/PKB = Akt/PKB S473 phosphorylation in serum-stimulated cells (P13K survival pathway); type: cell-based, human; conditions: for Akt/PKB phosphorylation in serum-stimulated cells: BR293, MCF-7 and MDA-MB-468 cells, Wortmannin 200 nM, AHLs 100 μM
Experimental: Cell lysates were then prepared and analysed by Western blotting for Akt/PKB phosphorylation with an antibody specific for Akt/PKB phosphorylated on S473 (p-Akt, upper panel) and subsequently for total Akt/PKB content with an antibody for Akt/PKB (lower panel).
In the bottom section of FIG. 21, BR293 cells were serum-starved (lane 1) or starved and stimulated with 10% FCS for 2 hours alone (lane 2) or in the presence of increasing concentrations of OdDHL (lanes 3-6) or 100 μM OHHL (lane 7) or 200 nM Wortmannin (lane 8). Cell lysates were prepared and analysed by Western blotting for Akt/PKB phosphorylation with an antibody specific for Akt/PKB phosphorylated on S473 (upper panel) and subsequently for total Alt/PKB content with an antibody for Akt/PKB (lower panel).

ErbB1 = molecular target: T1, ErbB1 (Homo sapiens, UniProt P00533); assay: Tyrosine phosphorylation of ErbB1 (EGF-R): immunoprecipitation and anti-phosphotyrosine immunoblot; type: cell-based; conditions: MDA-MB-468 cells
T1 construct: Lysates were prepared, from which ErbB1 proteins were collected as immune complexes; endogenous in cells; host or cells: MDA-MB-468
Experimental: Immune complexes were then allowed to bind to protein A-Sepharose beads for 1 hour at 4° C. and collected by centrifugation. Immunoprecipitates were washed three times in 100 mM Tris-HC1 pH 7.5, 100 nM NaCl, 1 mM EDTA, 0.1 mM PMSF, 0.5% NP-40. Thereafter, samples were taken up in sodium dodecyl sulphate (SDS) loading buffer and boiled for 5 min.

JAK2 = molecular target: T2, JAK2 (Homo sapiens, UniProt O60674); assay: Serum-induced JAK2 tyrosine phosphorylation (immunoblot); type: cell-based; conditions: preliminary data, unpublished
T2 construct: endogenous in cells; host or cells: BR293
Experimental: For immunoprecipitation and immunoblotting experiments, cells were grown to confluence in 10 cm dishes and maintained in full medium or starved in serum-free medium overnight before the application of appropriate stimuli. Lysates were prepared in TBSN buffer (50 mM Tris-HCl pH7.5, 150 mM NaCl, 1 mM EDTA, 1% NP-40) supplemented with protease inhibitors (1 mM Na3 VO4, 10 mM Na4P2O7, 10 mM NaF, 5 mM EGTA, 10 mM Benzamidine, 0.2 mM PMSF and 1 μg/ml each of leupeptin, aprotinin, pepstatin). Lysates were cleared by centrifugation at 16,000×g for 10 minutes and used directly for immunoprecipitations or stored at −20° C. for further use.
Equal amounts of lysates were incubated with the appropriate antibody for 2 hours at 4° C.
Immune complexes were then allowed to bind to protein A-Sepharose beads for 1 hour at 4° C. and collected by centrifugation. Immunoprecipitates were washed three times in 100 mM Tris-HC1 pH 7.5, […], 1 mM EDTA, 0.1 mM PMSF, 0.5% NP-40. Thereafter, samples were taken up in sodium dodecyl sulphate (SDS) loading buffer and boiled for 5 min.
Samples were separated by electrophoresis through 6% polyacrylamide-SDS gels. Proteins were then transferred to polyvinylidene difluoride (PVDF) membranes with a semi-dry electroblotting apparatus. […]

MCF-10F cells = assay: Cell proliferation assay (cell counting); type: cell-based, human; conditions: non-tumorigenic breast epithelial cells; 48 hours
Experimental: Breast cancer cell lines (BR293, MCF-7 and MDA-MB-468) were maintained in Minimum Essential Medium Eagle (MEM, Sigma) supplemented with 10% foetal calf serum (FCS), 1% MEM non-essential amino acids, 1% glutamine and 1% penicillin-streptomycin at 37° C. under 5% CO2. […] These cell lines are well-known, and widely available to persons in the field. In particular, the following lines are deposited with the American Type Culture Collection (ATTC) with the following identifying codes:
as §1

COS1 cells = assay: Cell proliferation assay (cell counting); type: cell-based, simian; conditions: cells expressing low levels of STAT proteins; 48 hours
Experimental: as §1

T1 sequence (P00533 25-1210): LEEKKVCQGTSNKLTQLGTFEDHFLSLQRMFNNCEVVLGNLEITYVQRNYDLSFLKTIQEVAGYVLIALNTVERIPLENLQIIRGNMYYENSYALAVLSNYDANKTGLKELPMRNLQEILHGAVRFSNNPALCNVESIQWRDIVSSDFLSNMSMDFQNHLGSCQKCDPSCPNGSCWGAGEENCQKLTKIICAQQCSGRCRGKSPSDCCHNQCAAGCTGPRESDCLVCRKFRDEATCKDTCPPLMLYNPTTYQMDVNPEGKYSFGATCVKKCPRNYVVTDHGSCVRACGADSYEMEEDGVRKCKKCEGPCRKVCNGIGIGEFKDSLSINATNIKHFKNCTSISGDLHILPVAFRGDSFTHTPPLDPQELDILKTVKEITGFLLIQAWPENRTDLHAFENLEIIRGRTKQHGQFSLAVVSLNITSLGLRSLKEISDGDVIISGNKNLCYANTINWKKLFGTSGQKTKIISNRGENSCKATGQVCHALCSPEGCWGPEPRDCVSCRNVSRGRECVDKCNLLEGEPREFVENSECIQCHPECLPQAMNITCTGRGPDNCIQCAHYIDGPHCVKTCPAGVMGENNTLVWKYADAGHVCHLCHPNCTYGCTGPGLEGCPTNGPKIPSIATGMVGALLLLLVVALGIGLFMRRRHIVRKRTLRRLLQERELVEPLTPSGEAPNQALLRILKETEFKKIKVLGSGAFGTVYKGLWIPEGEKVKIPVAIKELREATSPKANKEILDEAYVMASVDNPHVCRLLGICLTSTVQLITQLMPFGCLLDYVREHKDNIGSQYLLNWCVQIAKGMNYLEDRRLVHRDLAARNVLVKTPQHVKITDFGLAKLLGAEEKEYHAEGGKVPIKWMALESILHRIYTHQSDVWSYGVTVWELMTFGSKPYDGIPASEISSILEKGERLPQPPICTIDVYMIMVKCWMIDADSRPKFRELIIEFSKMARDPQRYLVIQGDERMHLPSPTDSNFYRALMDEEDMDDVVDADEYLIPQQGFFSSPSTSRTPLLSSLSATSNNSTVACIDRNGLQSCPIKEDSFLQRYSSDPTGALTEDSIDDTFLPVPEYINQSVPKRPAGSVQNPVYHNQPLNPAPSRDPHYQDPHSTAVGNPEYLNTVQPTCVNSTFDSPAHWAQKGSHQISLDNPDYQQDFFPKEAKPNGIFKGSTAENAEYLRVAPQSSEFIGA
T2 sequence (O60674 whole entry): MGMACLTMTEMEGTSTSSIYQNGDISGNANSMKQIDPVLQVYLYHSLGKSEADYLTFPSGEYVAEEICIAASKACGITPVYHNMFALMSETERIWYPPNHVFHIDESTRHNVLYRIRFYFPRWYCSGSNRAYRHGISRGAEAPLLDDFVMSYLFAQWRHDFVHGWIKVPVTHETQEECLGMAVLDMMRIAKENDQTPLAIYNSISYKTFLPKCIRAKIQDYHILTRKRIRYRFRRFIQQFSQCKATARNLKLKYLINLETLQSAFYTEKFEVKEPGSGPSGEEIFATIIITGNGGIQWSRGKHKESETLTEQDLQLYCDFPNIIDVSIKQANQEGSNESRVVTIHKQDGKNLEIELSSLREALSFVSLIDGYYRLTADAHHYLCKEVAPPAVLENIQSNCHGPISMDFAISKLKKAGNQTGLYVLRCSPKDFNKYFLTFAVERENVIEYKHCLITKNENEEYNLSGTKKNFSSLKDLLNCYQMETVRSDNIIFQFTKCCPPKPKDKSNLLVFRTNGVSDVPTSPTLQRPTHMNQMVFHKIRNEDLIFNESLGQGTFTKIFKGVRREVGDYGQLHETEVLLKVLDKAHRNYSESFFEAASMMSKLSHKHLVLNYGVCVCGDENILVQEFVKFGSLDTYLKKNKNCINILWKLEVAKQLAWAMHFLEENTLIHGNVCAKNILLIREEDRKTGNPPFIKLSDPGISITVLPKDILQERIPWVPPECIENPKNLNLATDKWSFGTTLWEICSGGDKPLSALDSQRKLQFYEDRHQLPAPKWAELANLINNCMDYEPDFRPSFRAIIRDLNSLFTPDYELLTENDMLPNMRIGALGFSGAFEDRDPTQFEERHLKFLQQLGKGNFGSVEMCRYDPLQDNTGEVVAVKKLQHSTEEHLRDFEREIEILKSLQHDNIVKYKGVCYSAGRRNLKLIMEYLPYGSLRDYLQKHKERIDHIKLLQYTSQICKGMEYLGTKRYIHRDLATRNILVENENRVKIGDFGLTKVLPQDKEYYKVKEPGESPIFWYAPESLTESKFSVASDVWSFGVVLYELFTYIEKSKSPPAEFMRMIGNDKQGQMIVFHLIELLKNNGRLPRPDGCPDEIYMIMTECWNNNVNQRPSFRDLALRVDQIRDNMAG

CCCC(=O)CC(=O)N[C@H]1CCOC1=O [OHHL, N-(3-oxohexanoyl)-L-homoserine lactone, reference compound]
growth of cultured cells (confluence) (BR293 cells): reached confluence in 48 hours
nuclear integrity by DAPI staining (MCF-7 cells): unaffected
Akt/PKB phosphorylation in serum-stimulated cells (Akt/PKB): had no effect

CCCCCCCCCC(=O)CC(=O)N[C@H]1CCOC1=O [OdDHL, N-(3-oxo-dodecanoyl)-L-homoserine lactone]
receptor tyrosine phosphorylation in response to EGF stimulation (ErbB1; 100 μM and even at lower concentrations (101M as printed)): potentiated receptor tyrosine phosphorylation in response to EGF stimulation several fold
tyrosine phosphorylation of the EGF-R in unstimulated cells (ErbB1; OdDHL alone at 100 μM): caused an increase in detectable tyrosine phosphorylation of the EGF-R
JAK2 phosphorylation in serum-stimulated cells (JAK2): does not interfere with JAK2 phosphorylation
growth of cultured cells (confluence) (BR293 cells): grew poorly or not at all
inhibition of proliferation (BR293 cells; over a 48-hour period): 70%-80%
effect on proliferation (MCF-10F cells): slight
effect on proliferation (COS1 cells): unaffected
nuclear integrity by DAPI staining (MCF-7 cells): nuclear disruption
Akt/PKB phosphorylation in serum-stimulated cells (Akt/PKB): blocked phosphorylation of Akt/PKB to a similar degree as Wortmannin
effective concentration for blocking Akt/PKB phosphorylation (Akt/PKB; titration in BR293 cells): above 50 μM
